Assay results as given in US10954228B2 (NATIONAL INSTITUTES OF HEALTH, UNITED STATES DEPARTMENT OF …, priority 2016, dated 2021).

Molecular target: Human LDHA (Homo sapiens (Human), UniProt P00338)
Experiment: human LDHA primary biochemical assay
Settings: biochemical LDHA inhibitory activity, assay of Example 1; activity level classes defined in nM
Description: This example describes a human LDHA primary biochemical assay employed in the characterization of a compound of formula (I) in an embodiment of the invention.
Test compounds were placed in a Greiner Bio-One (Monroe, N.C.) 1536-well black solid bottom assay plate. 200 millimolar (mM) Tris HCl, pH 7.4, 100 micromolar (μM) EDTA and 0.01% TWEEN-20™, final concentration, was used as the assay buffer. The LDHA reagent was 2 nanomolar (nM) Human LDHA (Meridian Life Science, Inc., Memphis, Tenn.), final concentration, in assay buffer. The substrate reagent was 0.06 mM NADH and 0.2 mM sodium pyruvate, final concentration, in assay buffer. The resazurin/diaphorase coupling reagent was 0.037 mM resazurin and 0.133 milligrams per milliliter (mg/mL) diaphorase, final concentration, in assay buffer. The inhibition of LDHA activity was measured by fluorescence emission.

Compound	IC50 [nM]
2-(5-([1,1′-bi(cyclopropan)]-2-yl)-4- (3-fluoro-4-sulfamoylbenzyl)- 3-(3-((5-methylthiophen-2- yl)ethynyl)phenyl)-1H-pyrazol-1- yl)thiazole-4-carboxylic acid [Compound 134]	100 to 1000
Cc1ccc(C#Cc2cccc(-c3nn(-c4nc(C(=O)O)cs4)c(C(C)C4CC4)c3Cc3ccc([S+](N)(=O)[O-])c(F)c3)c2)s1 (stereo not shown) [Compound 116, 2-(5-(1-cyclopropylethyl)-4-(3-fluoro-4-sulfamoylbenzyl)-3-(3-((5-methylthiophen-2-yl)ethynyl)phenyl)-1H-pyrazol-1-yl)thiazole-4-carboxylic acid]	100 to 1000
Cc1ccc(C#Cc2cccc(-c3nn(-c4nc(C(=O)O)cs4)c(C(C4CC4)C4CC4)c3Cc3ccc([S+](N)(=O)[O-])c(F)c3)c2)s1 [Compound 126, 2-(5-(dicyclopropylmethyl)-4-(3-fluoro-4-sulfamoylbenzyl)-3-(3-((5-methylthiophen-2-yl)ethynyl)phenyl)-1H-pyrazol-1-yl) thiazole-4-carboxylic acid]	1000 to 57000
Cc1ccc(C#Cc2cccc(-c3nn(-c4nc(C(=O)O)cs4)c(C(C)(C)C4CC4)c3Cc3ccc([S+](N)(=O)[O-])c(F)c3)c2)s1 [Compound 128, 2-(5-(2-cyclopropylpropan-2-yl)-4-(3-fluoro-4-sulfamoylbenzyl)-3-(3-((5-methylthiophen-2-yl)ethynyl)phenyl)-1H-pyrazol-1-yl) thiazole-4-carboxylic acid]	100 to 1000
Cc1ccc(C#Cc2cccc(-c3nn(-c4nc(B(O)O)cs4)c(CC4CC4)c3Cc3ccc(S(N)(=O)=O)c(F)c3)c2)s1 [Compound 135, (2-(5-(cyclopropylmethyl)-4-(3-fluoro-4-sulfamoylbenzyl)-3-(3-((5-methylthiophen-2-yl)ethynyl)phenyl)-1H-pyrazol-1-yl)thiazol-4-yl)boronic acid]	1000 to 57000
NS(=O)(=O)c1ccc(Cc2c(-c3ccc(F)c(-c4ccc(F)c(F)c4)c3)nn(-c3nc(C(=O)O)cs3)c2CC2CC2)cc1F [Compound 136, 2-(5-(cyclopropylmethyl)-4-(3-fluoro-4-sulfamoylbenzyl)-3-(3′,4′,6-trifluoro-[1,1′-biphenyl]-3-yl)-1H-pyrazol-1-yl)thiazole-4-carboxylic acid]	< 100
CC(=O)c1cc(-c2nn(-c3nc(C(=O)O)cs3)c(CC3CC3)c2Cc2ccc(S(N)(=O)=O)c(F)c2)ccc1F [Compound 140, 2-(3-(3-acetyl-4-fluorophenyl)-5-(cyclopropylmethyl)-4-(3-fluoro-4-sulfamoylbenzyl)-1H-pyrazol-1-yl)thiazole-4-carboxylic acid]	< 100
NS(=O)(=O)c1ccc(Cc2c(-c3ccc(F)c(C4=CCCO4)c3)nn(-c3nc(C(=O)O)cs3)c2CC2CC2)cc1F [Compound 148, 2-(5-(cyclopropylmethyl)-3-(3-(4,5-dihydrofuran-2-yl)-4-fluorophenyl)-4-(3-fluoro-4-sulfamoylbenzyl)-1H-pyrazol-1-yl)thiazole-4-carboxylic acid]	< 100
NS(=O)(=O)c1ccc(Cc2c(-c3ccc(F)c(NC(=O)c4ccccc4)c3)nn(-c3nc(C(=O)O)cs3)c2CC2CC2)cc1F [Compound 152, 2-(3-(3-benzamido-4-fluorophenyl)-5-(cyclopropylmethyl)-4-(3-fluoro-4-sulfamoylbenzyl)-1H-pyrazol-1-yl)thiazole-4-carboxylic acid]	< 100
N[S+](=O)([O-])c1ccc(Cc2c(-c3ccc(F)c(C(=O)N4CCCC4)c3)nn(-c3nc(C(=O)O)cs3)c2CC2CC2)cc1F [Compound 154]	< 100
CC(C)N1CC2(CN(c3cc(-c4nn(-c5nc(C(=O)O)cs5)c(CC5CC5)c4Cc4ccc(S(N)(=O)=O)c(F)c4)ccc3F)C2)C1 [Compound 158, 2-(5-(cyclopropylmethyl)-3-(4-fluoro-3-(6-isopropyl-2,6-diazaspiro[3.3]heptan-2-yl)phenyl)-4-(3-fluoro-4-sulfamoylbenzyl)-1H-pyrazol-1-yl)thiazole-4-carboxylic acid]	< 100
NS(=O)(=O)c1ccc(Cc2c(-c3ccc(F)c(-c4ncc[nH]4)c3)nn(-c3nc(C(=O)O)cs3)c2CC2CC2)cc1F [Compound 159, 2-(5-(cyclopropylmethyl)-3-(4-fluoro-3-(1H-imidazol-2-yl)phenyl)-4-(3-fluoro-4-sulfamoylbenzyl)-1H-pyrazol-1-yl)thiazole-4-carboxylic acid]	< 100
NS(=O)(=O)c1ccc(Cc2c(-c3ccc(F)c(-c4nc5ccccc5[nH]4)c3)nn(-c3nc(C(=O)O)cs3)c2CC2CC2)cc1F [Compound 160, 2-(3-(3-(1H-benzo[d]imidazol-2-yl)-4-fluorophenyl)-5-(cyclopropylmethyl)-4-(3-fluoro-4-sulfamoylbenzyl)-1H-pyrazol-1-yl)thiazole-4-carboxylic acid]	< 100
Cc1ncc(-c2cc(-c3nn(-c4nc(C(=O)O)cs4)c(CC4CC4)c3Cc3ccc(S(N)(=O)=O)c(F)c3)ccc2F)[nH]1 [Compound 161, 2-(5-(cyclopropylmethyl)-3-(4-fluoro-3-(2-methyl-1H-imidazol-5-yl)phenyl)-4-(3-fluoro-4-sulfamoylbenzyl)-1H-pyrazol-1-yl)thiazole-4-carboxylic acid]	< 100
Cc1ccc(C#Cc2cccc(-c3nn(-c4nc(C(N)=O)cs4)c(CC4CC4)c3Cc3ccc(S(N)(=O)=O)c(F)c3)c2)s1 [Compound 163, 2-(5-(cyclopropylmethyl)-4-(3-fluoro-4-sulfamoylbenzyl)-3-(3-((5-methylthiophen-2-yl)ethynyl)phenyl)-1H-pyrazol-1-yl)thiazole-4-carboxamide]	1000 to 57000
Cc1cc(-c2cccc(-c3nn(-c4nc(C(=O)O)cs4)c(CC4CC4)c3Cc3ccc(S(N)(=O)=O)c(F)c3)c2)ccc1Cl [Compound 170, 2-(3-(4′-chloro-3′-methyl-[1,1′-biphenyl]-3-yl)-5-(cyclopropylmethyl)-4-(3-fluoro-4-sulfamoylbenzyl)-1H-pyrazol-1-yl)thiazole-4-carboxylic acid]	1000 to 57000
NS(=O)(=O)c1ccc(Cc2c(-c3cccc(-c4ccc(C5CC5)c(F)c4)c3)nn(-c3nc(C(=O)O)cs3)c2CC2CC2)cc1F [Compound 171, 2-(3-(4′-cyclopropyl-3′-fluoro-[1,1′-biphenyl]-3-yl)-5-(cyclopropylmethyl)-4-(3-fluoro-4-sulfamoylbenzyl)-1H-pyrazol-1-yl)thiazole-4-carboxylic acid]	1000 to 57000
COc1ccc(-c2cccc(-c3nn(-c4nc(C(=O)O)cs4)c(CC4CC4)c3Cc3ccc(S(N)(=O)=O)c(F)c3)c2)cc1Cl [Compound 172, 2-(3-(3′-chloro-4′-methoxy-[1,1′-biphenyl]-3-yl)-5-(cyclopropylmethyl)-4-(3-fluoro-4-sulfamoylbenzyl)-1H-pyrazol-1-yl)thiazole-4-carboxylic acid]	100 to 1000
Cc1ccc(C#Cc2cccc(-c3nn(-c4nc(C(=O)NS(C)(=O)=O)cs4)c(CC4CC4)c3Cc3ccc(S(N)(=O)=O)c(F)c3)c2)s1 [Compound 180, 2-(5-(cyclopropylmethyl)-4-(3-fluoro-4-sulfamoylbenzyl)-3-(3-((5-methylthiophen-2-yl)ethynyl)phenyl)-1H-pyrazol-1-yl)-N-(methylsulfonyl)thiazole-4-carboxamide]	1000 to 57000
Cc1ccc(C#Cc2cccc(-c3nn(-c4nc(CO)cs4)c(CC4CC4)c3Cc3ccc(S(N)(=O)=O)c(F)c3)c2)s1 [Compound 181, 4-((5-(cyclopropylmethyl)-1-(4-(hydroxymethyl)thiazol-2-yl)-3-(3-((5-methylthiophen-2-yl)ethynyl)phenyl)-1H-pyrazol-4-yl)methyl)-2-fluorobenzenesulfonamide]	> 57000
CCc1cc(-c2cccc(-c3nn(-c4nc(C(=O)O)cs4)c(CC4CC4)c3Cc3ccc(S(N)(=O)=O)c(F)c3)c2)ccc1OC [Compound 182, 2-(5-(cyclopropylmethyl)-3-(3′-ethyl-4′-methoxy-[1,1′-biphenyl]-3-yl)-4-(3-fluoro-4-sulfamoylbenzyl)-1H-pyrazol-1-yl)thiazole-4-carboxylic acid]	100 to 1000
NS(=O)(=O)c1ccc(Cc2c(-c3cccc(-c4ccc(C5CC5)cc4)c3)nn(-c3nc(C(=O)O)cs3)c2CC2CC2)cc1F [Compound 183, 2-(3-(4′-cyclopropyl-[1,1′-biphenyl]-3-yl)-5-(cyclopropylmethyl)-4-(3-fluoro-4-sulfamoylbenzyl)-1H-pyrazol-1-yl)thiazole-4-carboxylic acid]	< 100
NS(=O)(=O)c1ccc(Cc2c(-c3cccc(-c4ccc(C5CCC5)cc4)c3)nn(-c3nc(C(=O)O)cs3)c2CC2CC2)cc1F [Compound 184, 2-(3-(4′-cyclobutyl-[1,1′-biphenyl]-3-yl)-5-(cyclopropylmethyl)-4-(3-fluoro-4-sulfamoylbenzyl)-1H-pyrazol-1-yl)thiazole-4-carboxylic acid]	100 to 1000
Cc1cc(-c2cc(-c3nn(-c4nc(C(=O)O)cs4)c(CC4CC4)c3Cc3ccc(S(N)(=O)=O)c(F)c3)ccc2F)ccc1Cl [Compound 185, 2-(3-(4′-chloro-6-fluoro-3′-methyl-[1,1′-biphenyl]-3-yl)-5-(cyclopropylmethyl)-4-(3-fluoro-4-sulfamoylbenzyl)-1H-pyrazol-1-yl)thiazole-4-carboxylic acid]	100 to 1000
CCc1cc(-c2cc(-c3nn(-c4nc(C(=O)O)cs4)c(CC4CC4)c3Cc3ccc(S(N)(=O)=O)c(F)c3)ccc2F)ccc1OC [Compound 186, 2-(5-(cyclopropylmethyl)-3-(3′-ethyl-6-fluoro-4′-methoxy-[1,1′-biphenyl]-3-yl)-4-(3-fluoro-4-sulfamoylbenzyl)-1H-pyrazol-1-yl)thiazole-4-carboxylic acid]	100 to 1000
